Assay results taken from ChEMBL document CHEMBL5678816, “A Next-Generation TRK Kinase Inhibitor Overcomes Acquired Resistance to Prior TRK Kinase Inhibition in Patients with TRK Fusion-Positive Solid Tumors” (Cancer Discov, 2017).
pIC50: −log10 of the molar value. The source made the active and inactive calls. The rule behind the calls is not given here.

Columns and labels:
NIH3T3 [1] = assay: In vivo inhibition of […] in nu/nu NCr mouse implanted with mouse NIH3T3 cells harboring extracellular domain deleted […] assessed as reduction in […] phosphorylation at 10 to 100 mg/kg, po administered twice daily for 3 days and measured after 2 hrs post last dose by ELISA; type: functional, organism-based; settings: dose 10-100 mg/kg, time 3.0 day
[2] = Inhibition of N-terminal 3FLAG-tagged ETV6-TRKC G696A mutant (unknown origin) expressed in NIH3T3 cells assessed as ERK1/2 phosphorylation incubated for 1 hrs by flow cytometric analysis; type: cell-based, Homo sapiens
NIH3T3 [3] = assay: In vivo inhibition of […] in nu/nu NCr mouse implanted with mouse NIH3T3 cells harboring extracellular domain deleted […] assessed as reduction in […] phosphorylation at 60 mg/kg, po administered once daily for 3 days and measured after 2 hrs post last dose by ELISA; type: functional, organism-based; settings: time 3.0 day
[4] = Inhibition of N-terminal 6His-tagged TRKC G696A mutant (506 to 829 residues) (unknown origin) expressed in Escherichia coli incubated for 60 mins by [gamma-33P]-ATP based TopCount NXT liquid scintillation assay; parameters: species or system Homo sapiens
[5] = Toxicity in nu/nu NCr mouse implanted with mouse NIH3T3 cells harboring extracellular domain deleted TRKA assessed as body weight loss at 60 mg/kg, po administered once daily for 10 days relative to control; type: organism-based; settings: in vivo, 240 h, time 10 day
[6] = Inhibition of N-terminal 3FLAG-tagged ETV6-TRKC G623R mutant (unknown origin) expressed in NIH3T3 cells assessed as ERK1/2 phosphorylation incubated for 1 hrs by flow cytometric analysis; type: cell-based, Homo sapiens
KM12 = assay: Antitumor activity against human KM12 cells harboring TPM3-TRKA fusion protein xenografted in nu/nu NCr mouse assessed as inhibition of tumor growth at 60 mg/kg, po administered once daily for 11 days; type: functional, organism-based; settings: time 11.0 day
[7] = Inhibition of N-terminal 3FLAG-tagged wild type ETV6-TRKC (unknown origin) expressed in NIH3T3 cells assessed as ERK1/2 phosphorylation incubated for 1 hrs by flow cytometric analysis; type: cell-based, Homo sapiens
[8] = Inhibition of human extracellular domain deleted TRKA G667S mutant expressed in mouse NIH3T3 cells assessed as reduction in TRKA phosphorylation incubated for 1 hrs by ELISA; type: cell-based; settings: NIH3T3, 1 h
[9] = Inhibition of human extracellular domain deleted TRKA V573M mutant expressed in mouse NIH3T3 cells assessed as reduction in TRKA phosphorylation incubated for 1 hrs by ELISA; type: cell-based; settings: NIH3T3, 1 h
[10] = Toxicity in nu/nu NCr mouse xenografted with human KM12 cells harboring TPM3-TRKA fusion protein assessed as body weight loss at 60 mg/kg, po administered once daily for 11 days relative to control; type: organism-based; settings: in vivo, 264 h, time 11 day
NIH3T3 [11] = assay: Antitumor activity against mouse NIH3T3 cells harboring extracellular domain deleted TRKA implanted in nu/nu NCr mouse assessed as inhibition of tumor growth at 60 mg/kg, po administered once daily for 10 days; type: functional, organism-based; settings: time 10.0 day
[12] = Toxicity in nu/nu NCr mouse implanted with mouse NIH3T3 cells harboring extracellular domain deleted TRKA G595R mutant assessed as body weight loss at 60 mg/kg, po administered once daily for 12 days relative to control; type: organism-based; settings: in vivo, 288 h, time 12 day

- pIC50 [2]: 6.76
- pIC50 [4]: 8.35
- pIC50 [6]: < 5.00
- pIC50 [7]: 7.73
- pIC50 [8]: 7.15
- pIC50 [9]: 5.99
SMILES: O=C(Nc1cnn2ccc(N3CCC[C@@H]3c3cc(F)ccc3F)nc12)N1CC[C@H](O)C1 [LAROTRECTINIB]
- inhibition (NIH3T3 [1]): Active
- inhibition (NIH3T3 [3]): Active
- Activity [5]: < 5%
- Activity (KM12): Active
- Activity [10]: < 5%
- Activity (NIH3T3 [11]): Active
- Activity [12]: < 5%
